“And” between values parts separate entries of the source, which are not always exact repeats. Equal entries are not always repeated.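 Where inhibition never reached the appropriate level, the endpoint shown equals the highest concentration tested. Otherwise, values were interpolated linearly from a five-concentration, 48-hour dose response in 96-well plates. GI50 marks 50% less growth. Definition used: TGI = concentration required for complete inhibition of growth.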
How the values were obtained:
Assay in all cases: DTP human tumour cell line panel, 48 h
U251 CNS = system: U251 CNS
HT29 colon = system: HT29 colon
T-47D breast = system: T-47D breast
ACHN renal = system: ACHN renal
RPMI-8226 leukemia = system: RPMI-8226 leukemia
SK-MEL-28 melanoma = system: SK-MEL-28 melanoma
SW-620 colon = system: SW-620 colon
SF-268 CNS = system: SF-268 CNS
NCI/ADR-RES ovarian = system: NCI/ADR-RES ovarian
RXF 393 renal = system: RXF 393 renal

| SMILES | TGI (U251 CNS) [µM] | TGI (HT29 colon) [µM] | TGI (T-47D breast) [µM] | TGI (ACHN renal) | TGI (RPMI-8226 leukemia) [µM] | TGI (SK-MEL-28 melanoma) [µM] | TGI (SW-620 colon) | TGI (SF-268 CNS) [µM] | TGI (NCI/ADR-RES ovarian) | TGI (RXF 393 renal) | GI50 (U251 CNS) [µM] | GI50 (HT29 colon) [µM] | GI50 (T-47D breast) [µM] | GI50 (ACHN renal) [µM] | GI50 (RPMI-8226 leukemia) [µM] | GI50 (SK-MEL-28 melanoma) [µM] | GI50 (SW-620 colon) [µM] | GI50 (SF-268 CNS) [µM] | GI50 (NCI/ADR-RES ovarian) | GI50 (RXF 393 renal) [µM] |
| --- | --- | --- | --- | --- | --- | --- | --- | --- | --- | --- | --- | --- | --- | --- | --- | --- | --- | --- | --- | --- |
| O=c1c2ncn(C3CC(O)C(CO)O3)c2nnn1Cc1ccccc1[N+](=O)[O-] (stereo not drawn) | > 100 | > 100 | > 100 | > 100 µM | > 100 | > 100 | > 100 µM | > 100 | > 100 µM | 94.1 µM | – | – | – | – | – | – | – | – | – | – |
| CCSC1=CC(=O)c2nc3ccccc3c3ccnc1c23 | 14.5 | 16.9 | 78.2 | > 44.7 µM | > 31.6 | 25.3 | > 21.4 µM | > 22 | > 30.1 µM | 18.2 µM | – | – | – | – | – | – | – | – | – | – |
| CSCCC(NCc1c(O)ccc2c(-c3ccccc3)cc(=O)oc12)C(=O)O (stereo not drawn) | > 100 | > 100 | > 100 | > 100 µM | > 100 | > 100 | > 100 µM | > 100 | > 100 µM | > 100 µM | – | – | – | – | – | – | – | – | – | – |
| CCOC1CC(=O)c2c(Br)sc(Br)c21 (stereo not drawn) | 33.1 | 44 | 44.1 | 36.7 µM | 49.6 | 39.5 | 47.1 µM | 80.8 | > 100 µM | 35.5 µM | – | – | – | – | – | – | – | – | – | – |
| CCCCn1c2c(n(CCCC)c1=S)-c1c(n(CCCC)c(=S)n1CCCC)S[Se][Se]S2 | 16.9 | 32.5 | 2.04 | 14.2 µM | > 35.3 | > 61.4 | 6.64 µM | > 83.4 | 53 µM | 25.4 µM | – | – | – | – | – | – | – | – | – | – |
| O=C(O)[C@@H]1C[C@@H](O)CN1C(=O)OCc1ccccc1 | > 100 | > 100 | > 100 | > 100 µM | > 100 | > 100 | > 100 µM | > 100 | > 100 µM | > 100 µM | – | – | – | – | – | – | – | – | – | – |
| COc1ccc2c(c1)O/C(=C\c1cccc(OCC(=O)Nc3nc4c(s3)CCCC4)c1)C2=O | 8.31 | > 100 | > 100 | 33.6 µM | > 33.2 | > 100 | > 100 µM | 12.3 | > 100 µM | 4.48 µM | 2.8 | 25.1 | 6.39 | 4.43 | 3.41 | > 100 | > 100 | 5.33 | 60.8 µM | 2.11 |
| O=C1/C(=C/c2ccccc2S)N=C(c2ccccc2)N1c1nc2ccc(Sc3ccccc3)cc2[nH]1 | 51.7 | 43.1 | > 100 | > 100 µM | 65.7 | > 100 | > 100 µM | > 100 | 50.4 µM | > 100 µM | – | – | – | – | – | – | – | – | – | – |
| COc1cc2c(cc1OCCCCOc1cc(-c3ccc(F)cc3)nc(C)n1)N=C[C@@H]1CCCN1C2=O | 2.55 | 3.92 | 1.14 | 0.823 µM | 0.36 | 2.81 | 4.85 µM | 16.3 | 2.12 µM | 3.22 µM | – | – | – | – | – | – | – | – | – | – |
| Cc1ccccc1OC(C)C(=O)NN1C(=O)CC(=O)N(c2ccc(Cl)cc2)C1=S (stereo not drawn) | > 100 | > 100 | > 100 | > 100 µM | > 100 | > 100 | > 100 µM | > 100 | > 100 µM | 78.3 µM | – | – | – | – | – | – | – | – | – | – |
| CC(C)(C)NC(=O)[C@H]1CC[C@H]2[C@@H]3CC=C4NC(=O)CC[C@]4(C)[C@H]3CC[C@]12C | > 100 | > 100 | > 100 | > 100 µM | > 100 | > 100 | > 100 µM | > 100 | > 100 µM | > 100 µM | – | – | – | – | – | – | – | – | – | – |
| Nc1nn2c(C(Br)Br)cc(C(Br)Br)nc2c1[N+](=O)[O-] | 2.54 | 3.28 | 5.27 | 2.1 µM | 1.72 | 2.88 | 0.77 µM | 4.8 | > 34 µM | 4.35 µM | – | – | – | – | – | – | – | – | – | – |
| CCCCN1CCN(c2ccc3nc(-c4ccc5nc(-c6ccc(C(F)(F)F)cc6)[nH]c5c4)[nH]c3c2)CC1 | 2.96 | 1.45 | 3.19 | 2.68 µM | 0.475 | 3.19 | 0.841 µM | 3.43 | > 75.9 µM | 2.49 µM | 1.59 | 0.385 | 1.38 | 1.38 | 0.201 | 1.69 | 0.297 | 1.74 | 3.24 µM | 1.13 |
| C=C1C(O)C2(O)OCC34C(CC5C(C)=CC(=O)C(O)C5(C)C23)OC(=O)C(OC(=O)C/C=C(\C)CCCCC)C14 (stereo not drawn) | – | – | < 0.001 | 0.00856 µM and 0.0518 µM | – | – | 0.0158 µM and 0.119 µM and 0.026 µM | – | 4.22 µM and 6.42 µM and 11.5 µM | 0.00351 µM and 0.0245 µM | < 0.001 | < 0.001 | – | – | < 0.001 | < 0.001 | < 0.001 | < 0.001 | 0.387 µM and 1.46 µM | < 0.001 |
| COC(=O)c1ccccc1/C=C1/Cc2ccccc2C1=O | 94.9 | > 100 | > 100 | > 100 µM | 49.5 | > 100 | 85.5 µM | > 100 | > 100 µM | > 100 µM | – | – | – | – | – | – | – | – | – | – |

Reference: PubChem BioAssay (NCI)
